From US5128363A, “Trifluoromethoxy substituted 1,3,4,9-tetrahydropyrano-[3,4-b]indole-1-acetic acids” (American Home Products Corporation, priority 1990, dated 1992)

What was measured:
[1] = test system: mice injected with a chemical irritant; assay: Phenylbenzoquinone-induced Writhing in Mice; type: in vivo, Male Swiss albino mice; details: Mus musculus, po; for ED50: read-out: Phenylquinone Writhing in Mice, ED50
Experimental: A further test used to determine the utility of the compounds of the present invention is designated: Drug Effects on Phenylbenzoquinone-induced Writhing in Mice.
The objective of this test is to determine the ability of test drugs to inhibit the nociceptive (pain) response of mice injected with a chemical irritant. This test is a primary screen for both peripheral and centrally acting analgesic drugs.
Male Swiss albino mice (15-25 g). The animals are fasted for 18 hours prior to use but have free access to water.
Drug Preparation and Administration:
Drugs are dissolved or suspended according to their solubility in 0.5% Tween 80 in distilled water. They are administered by gastric gavage in a volume of 5 mL/kg. For primary screening all drugs are administered at the arbitary dosage of 10 mg/kg, p.o. to a group of 10 mice.
A modification of the method of Siegmund et al, Proc. Soc. Exp. Biol. Med., 95, 729-731 (1957) is used. Groups of 5 mice are dosed with the test compound or vehicle control. Sixty minutes later the animals are injected i.p. with 0.3 mL/20 g body weight of a 0.02% solution of phenylbenzoquinone (PBQ; 2-phenyl-1,4-benzoquinone) and placed in individual observation boxes. The number of writhing or abdominal squirming movements made by each mouse during the following 15 min. period is counted. The experiment is repeated with another group of 5 mice and the mean number of writhes per mouse for a group of 10 mice is calculated.
Drug treated and vehicle-treated control groups are compared and the percentage protection conferred by the drug is calculated: [formula] where c=mean number of writhes in the control group where t=mean number of writhes in the test drug group

[2] = test system: rats with established adjuvant arthritis; assay: Curative Adjuvant Arthritis; type: in vivo, Male inbred Wistar Lewis rats; details: for Injected Paw Edema / Non-Injected Paw Edema: change day 16 to day 25; for Body Weight Change: day 16 to day 25
Text: An additional test used to determine the utility of the compounds of the present invention is designated: Curative Adjuvant Arthritis. The objective of this test is to evaluate the ability of drugs to decrease edema in rats with established adjuvant arthritis in order to characterize further the anti-inflammatory activity of the compounds of the present invention. Species Male inbred Wistar Lewis rats with an initial body weight of 180-200 g were used. The animals had free access to food and water throughout the test. Drug Preparations and Administration Freund's Complete Adjuvant (FCA) was prepared by suspending 5 mg killed and dried Mycobacterium butyricum (Difco) in 1 mL mineral oil. The test compounds were dissolved, or suspended with a few drops of Tween 80, in distilled water according to their solubility. […] The volume of both hind paws were measured and body weight recorded at that time. On day 16 after FCA injection the volume of both hind paws were again measured. […] Mean body weight for each group was recorded. Drug or vehicle treatment was initiated on day 16. Animals were dosed daily from day 16 to day 25 (i.e. a total of […]). The volume of both hind paws and the body weight of the animal was recorded 2 hours after the last drug administration. Vehicle treated arthritic animals acted as a vehicle-treated control group and animals treated with etodolac (3 mg/kg po) acted as a positive control group. […] The ED50, or dose which causes such an effect in 50% animals, is calculated by probit analysis.

[3] = test system: rats injected intradermally in the left hind paw with Freund's complete adjuvant; assay: Preventative Adjuvant Edema; type: in vivo, Male Sprague Dawley rats; details: Rattus norvegicus, po, 25 mg/kg p.o., edema volume day 3 vs day 0, read-out: Preventative Adjuvant Edema, percent inhibition
Experimental: This test is a primary screen for anti-inflammatory drugs.
Male Sprague Dawley rats (180-200 g) are used. The animals have free access to water but food is withdrawn 18 hours before testing.
Drug Preparations and Administration:
Freund's complete adjuvant is prepared by suspending 5 mg of killed and dried Mycobacterium butyricum (Difco) in 1 mL mineral oil. The test compounds are dissolved, or suspended in 0.5% Tween 80 in distilled water according to their solubility. For primary screening all drugs are administered by gastric gavage at the arbitrary dosage of 25 mg/kg, p.o. in a volume of 0.5 mL/100 g body weight to groups of 10 animals.
The method is essentially that described by Wax et al, J. Pharmacol. Exp. Ther., 192, 166-171 (1975). Groups of rats are injected intradermally in the left hind paw with 0.1 mL of Freund's complete adjuvant. […] The injected hind paw volume is measured before the injection of adjuvant and 24 hrs. after the last drug administration (day 3) by means of a plethysmometer (Buxco Electronics Inc.). […]
The mean edema volume (expressed as mL±SEM) is calculated for each group and the percentage protection conferred by the drug is calculated: [formula] where c is the mean edema volume for the vehicle-treated (0.5% Tween 80 in distilled water) controls and t is the means edema volume for the drug treated group.

SMILES | inhibition at 10 mg/kg ([1]; 10 mg/kg p.o., read-out: Phenylquinone Writhing in Mice, percent inhibition) [%] | ED50 [1] [mg/kg] | Injected Paw Edema ([2]; 0.3 mg/kg/day p.o.) | Non-Injected Paw Edema ([2]; 0.3 mg/kg/day p.o.) | Body Weight Change ([2]; 0.3 mg/kg/day p.o.) | anti-inflammatory effect relative to etodolac ([2]; 1 mg/kg/day p.o.) | Injected Paw Edema ([2]; 1 mg/kg/day p.o.) | Non-Injected Paw Edema ([2]; 1 mg/kg/day p.o.) | Body Weight Change ([2]; 1 mg/kg/day p.o.) | Injected Paw Edema ([2]; 3 mg/kg/day p.o.) [mL] | Non-Injected Paw Edema ([2]; 3 mg/kg/day p.o.) | Body Weight Change ([2]; 3 mg/kg/day p.o.) | health as assessed by body weight gain ([2]; highest dose, 3 mg/kg/day) | potency relative to etodolac ([2]; more potent than etodolac, curative adjuvant arthritis) | inhibition at 25 mg/kg [3] [%]
CCC1(CC(=O)O)OCCc2c1[nH]c1cc(OC(F)(F)F)ccc21 (centres unmarked) [1-Ethyl-1,3,4,9-tetrahydro-7-(trifluoromethoxy)-pyrano[3,4-b]indole-1-acetic Acid] | 47 | 24 | +0.53 mL | +1.21 mL | +2 g | intermediate between that produced by 1 and 3 mg/kg etodolac | -0.18 mL | +0.35 mL | +2 g | -0.60 | +0.11 mL | +20 g | appeared healthy | approximately 2 fold | 88
CCc1cccc2c3c([nH]c12)C(CC)(CC(=O)O)OCC3 (centres unmarked) [etodolac, reference compound] |  | 168 | +1.12 mL | +1.86 mL | -3 g |  | +0.40 mL | +1.14 mL | -9 g | -0.28 | +0.51 mL | +10 g |  |  | 68
